Measurements published in PubChem BioAssay (NCI).
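GI50: concentration for 50% inhibition of growth. TGI denotes the concentration required for complete inhibition of growth.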

What was measured:
Assay in all cases: DTP human tumour cell line panel, 384-well format
[1] = system: OVCAR-8 ovarian
[2] = system: MCF7 breast
[3] = system: SW-620 colon
[4] = system: A549 NSCLC
[5] = system: MDA-MB-468 breast
[6] = system: SF-295 CNS
[7] = system: SNB-75 CNS
[8] = system: OVCAR-5 ovarian
[9] = system: NCI-H226 lung
[10] = system: HOP-92 NSCLC
[11] = system: HOP-62 NSCLC
[12] = system: MDA-MB-435 melanoma
[13] = system: A498 renal
[14] = system: KM12 colon
[15] = system: T-47D breast
[16] = system: CAKI-1 renal
[17] = system: EKVX NSCLC
[18] = system: HT29 colon
[19] = system: OVCAR-3 ovarian
[20] = system: SK-OV-3 ovarian
[21] = system: HL-60(TB) leukemia
[22] = system: IGROV1 ovarian
[23] = system: SN12C renal
[24] = system: NCI-H460 NSCLC
[25] = system: NCI-H23 lung
[26] = system: OVCAR-4 ovarian
[27] = system: TK-10 renal
[28] = system: SK-MEL-2 melanoma
[29] = system: PC-3 prostate
[30] = system: SF-539 CNS
[31] = system: COLO 205 colon
[32] = system: SK-MEL-28 melanoma
[33] = system: SK-MEL-5 melanoma
[34] = system: NCI-H322M lung
[35] = system: SF-268 CNS
[36] = system: ACHN renal
[37] = system: SR leukemia
[38] = system: HCT-116 colon
[39] = system: M14 melanoma
[40] = system: DU-145 prostate
[41] = system: UO-31 renal
[42] = system: SNB-19 CNS
[43] = system: MOLT-4 leukemia
[44] = system: K-562 leukemia
[45] = system: HS 578T breast
[46] = system: NCI-H522 lung
[47] = system: MALME-3M melanoma
[48] = system: RXF 393 renal
[49] = system: BT-549 breast
[50] = system: 786-0 renal
[51] = system: MDA-MB-231 breast
[52] = system: HCT-15 colon
[53] = system: UACC-257 melanoma
[54] = system: UACC-62 melanoma
[55] = system: U251 glioblastoma

COc1cc2c(N3CCN(C(=O)Nc4ccc(OC(C)C)cc4)CC3)ncnc2cc1OCCCN1CCCCC1
GI50 [1]: 11.3 µM
TGI [1]: 32.3 µM
GI50 [2]: 3.18 µM
TGI [2]: 15.1 µM
GI50 [3]: 10.9 µM
TGI [3]: 23.1 µM
GI50 [4]: 14.1 µM
TGI [4]: 29 µM
GI50 [5]: 3.91 µM
TGI [5]: 14.5 µM
GI50 [6]: 11.5 µM
TGI [6]: 23.8 µM
GI50 [7]: 9.87 µM
TGI [7]: 21.6 µM
GI50 [8]: 13.1 µM
TGI [8]: 35 µM
GI50 [9]: 7.66 µM
TGI [9]: 21.5 µM
GI50 [10]: 9.13 µM
TGI [10]: 21.3 µM
GI50 [11]: 7.62 µM
TGI [11]: 21.1 µM
GI50 [12]: 13 µM
TGI [12]: 25.9 µM
GI50 [13]: 5.09 µM
TGI [13]: 17.3 µM
GI50 [14]: 12.3 µM
TGI [14]: 25.1 µM
GI50 [15]: 10.4 µM
TGI [15]: 22.3 µM
GI50 [16]: 2.25 µM
TGI [16]: 6.6 µM
GI50 [17]: 5.21 µM
TGI [17]: 19.5 µM
GI50 [18]: 3.24 µM
TGI [18]: 11.3 µM
GI50 [19]: 14.3 µM
TGI [19]: 28.2 µM
GI50 [20]: 12.5 µM
TGI [20]: 25.2 µM
GI50 [21]: 15 µM
TGI [21]: 28.4 µM
GI50 [22]: 13.4 µM
TGI [22]: 26.9 µM
GI50 [23]: 13.1 µM
TGI [23]: 26.2 µM
GI50 [24]: 2.48 µM
TGI [24]: 12.2 µM
GI50 [25]: 12 µM
TGI [25]: 25.7 µM
GI50 [26]: 13.9 µM
TGI [26]: 30.5 µM
GI50 [27]: 10.8 µM
TGI [27]: 25.2 µM
GI50 [28]: 3.78 µM
TGI [28]: 12.8 µM
GI50 [29]: 10.8 µM
TGI [29]: 24 µM
GI50 [30]: 1.84 µM
TGI [30]: 16.4 µM
GI50 [31]: 12.1 µM
TGI [31]: 24.7 µM
GI50 [32]: 12.3 µM
TGI [32]: 24.8 µM
GI50 [33]: 9 µM
TGI [33]: 21.1 µM
GI50 [34]: 12.1 µM
TGI [34]: 32.7 µM
GI50 [35]: 8.64 µM
TGI [35]: 21.1 µM
GI50 [36]: 9.76 µM
TGI [36]: 22.6 µM
GI50 [37]: 1.93 µM
TGI [37]: 3.54 µM
GI50 [38]: 9.38 µM
TGI [38]: 21.6 µM
GI50 [39]: 12.3 µM
TGI [39]: 24.9 µM
GI50 [40]: 12.5 µM
TGI [40]: 26.3 µM
GI50 [41]: 16.4 µM
TGI [41]: 30.1 µM
GI50 [42]: 16 µM
TGI [42]: 41.6 µM
GI50 [43]: 2.61 µM
TGI [43]: 5.95 µM
GI50 [44]: 3.31 µM
TGI [44]: 11.5 µM
GI50 [45]: 4.87 µM
TGI [45]: 17.9 µM
GI50 [46]: 12.5 µM
TGI [46]: 25 µM
GI50 [47]: 5.03 µM
TGI [47]: 17.2 µM
GI50 [48]: 2.82 µM
TGI [48]: 9.78 µM
GI50 [49]: 8.6 µM
TGI [49]: 20.8 µM
GI50 [50]: 8.32 µM
TGI [50]: 20.7 µM
GI50 [51]: 13.6 µM
TGI [51]: 31.4 µM
GI50 [52]: 15.8 µM
TGI [52]: 29.5 µM
GI50 [53]: 1.99 µM
TGI [53]: 4.04 µM
GI50 [54]: 7.65 µM
TGI [54]: 20.6 µM
GI50 [55]: 11 µM
TGI [55]: 23.1 µM
